Laboratory results reported in ChEMBL document CHEMBL1158230, “Cytotoxicity and mode of action of aeroplysinin-1 and a related dienonefrom the sponge Aplysina aerophoba” (J Nat Prod, 1996).

Assays:
Format in all cases: functional, cell-based
[1] = Cytotoxicity against buthionine sulfoximine-pretreated mouse EN19 cells after 3 days by MTT assay
[2] = Cytotoxicity against buthionine sulfoximine-pretreated human HeLaS3 cells after 2 hrs by MTT assay; conditions: HeLa S3
[3] = Cytotoxicity against buthionine sulfoximine-pretreated human HeLaS3 cells after 4 days by MTT assay; conditions: HeLa S3
[4] = Cytotoxicity against buthionine sulfoximine-pretreated mouse EN19 cells after 2 hrs by MTT assay
[5] = Cytotoxicity against mouse EN19 cells after 1 week by clonogenic assay; conditions: EN19, 168 h
[6] = Cytotoxicity against human HeLaS3 cells after 4 days by MTT assay; conditions: HeLa S3, 96 h
[7] = Cytotoxicity against human HeLaS3 cells after 2 hrs by MTT assay; conditions: HeLa S3, 2 h
[8] = Cytotoxicity against mouse EN19 cells after 3 days by MTT assay; conditions: EN19, 72 h
[9] = Cytotoxicity against mouse EN19 cells after 2 hrs by MTT assay; conditions: EN19, 2 h
[10] = Cytotoxicity against human HeLaS3 cells after 2 weeks by clonogenic assay; conditions: HeLa S3, 336 h

SMILES | IC50 [1] [µM] | IC50 [2] [µM] | IC50 [3] [µM] | IC50 [4] [µM] | IC50 [5] [µM] | IC50 [6] [µM] | IC50 [7] [µM] | IC50 [8] [µM] | IC50 [9] [µM] | IC50 [10] [µM]
COC1=C(Br)[C@H](O)[C@](O)(CC#N)C=C1Br | 0.7 | 5.4 | 2.8 | 1.1 | 37 | 5.6 | 18.8 | 6.2 | 8.2 | 27.5
NC(=O)CC1(O)C=C(Br)C(=O)C(Br)=C1 [VERONGIAQUINOL] | 5.4 | 15.7 | 10.4 | 3.9 | 74.3 | 15.6 | 31.9 | 26.1 | 46.1 | 58
